Experimental findings from patent US12594293B2, “Use of 6-thio-dG to treat therapy-resistant telomerasepositive pediatric brain tumors” (The Board of Regents of The University of Texas System, priority 2018, dated 2026) are described below.

One assay deals with MB004 cells. The assay is described as follows: Cell cycle analysis (PI flow cytometry). Type of assay: cell-based, human. Particulars: 3 μM for 3 days. Here is the method: (§1) Cell cycle analysis. […] Cells were then washed and stained with propidium iodide (PI) solution containing 25 μg/mL PI (Sigma), and 100 μg/mL Ribonuclease-A (Sigma) for 30 minutes in the dark. Flow cytometry was performed on BD FACS Canto II and cells were analyzed using FlowJo v.10 (FlowJo, USA) software.

Assay [1] has as its system HeLa cells. The assay is described as follows: Cell cycle analysis (PI flow cytometry). Type of assay: cell-based, human. Here is the method: as §1
Another assay relates to HFF cells. The assay is described as follows: Apoptosis, cleaved caspase-3 (IF / immunoblot). The assay is classed as cell-based, human. Particulars: 3 μM for 4 or 7 days. How it is done: (§2) Immunofluorescence and telomere FISH assay. Cells were fixed with 4% paraformaldehyde (PFA) for 15 minutes. Cells were then washed, permeabilized with 0.5% Triton-X-100 in PBS, blocked with 5% donkey serum and 0.3% Triton X-100 in TBS and incubated with primary antibodies against γH2A.X (1:500, rabbit), or cleaved caspase-3 (1:400, rabbit) (Cell Signaling); and/or TRF2 (1:200) (Mouse; NOVUS), as applicable, for overnight followed by TBST wash (×3) next day. Corresponding secondary antibodies were added (Alexa-Fluor 488- or 594-conjugated donkey anti-rabbit, or anti-mouse (1:500) (Jackson ImmunoResearch) for 1 hour and washed with TBS (×3) before mounting. For telomere-FISH, fixed and permeabilized cells were dehydrated with a graded ethanol concentration series, air-dried and covered with hybridization solution (70% formamide, 0.5% Blocking Reagent (Roche Diagnostics) diluted in 100 mM maleic acid and 150 mM sodium chloride, and 10 mM Tris (pH 7.5)) with 300 ng/mL PNA(CCCTAA)3-Cy3 (SEQ ID NO: 1) (Biosynthesis, USA), and denatured for 6 minutes at 84° C. followed by hybridization for at least two hours at room temperature. Cells were washed three times with 70% formamide and 10 mM Tris (pH 7.5) and three times with TBS. Finally, they were embedded with mounting media with DAPI (Vector Laboratories H1200).
(§3) Western blot. Western blot was performed as described previously (22). Antibodies used were against ATMS1981P (R & D Systems); ATM (SIGMA); ATR-T1989P (GeneTex); and ATR, CHK1-S345P, CHK1, CHK2-T68P, CHK2, Cleaved Caspase-3, and β-actin (Cell Signaling). Bands were visualized using ECL with Azurec500 imaging system (Azure Biosystems). Band intensities were quantified using ImageJ software (Ver. 1.49u, NIH, USA).
In general terms: Immunoblotting shows a protein as a band on a membrane.

The next assay has as its system HFF+hTERT cells. As to the kind of experiment: Apoptosis, cleaved caspase-3 (IF / immunoblot). The assay is classed as cell-based, human. The note with it: 3 μM for 4 or 7 days. How it is done:
as §2, §3

Assay [2] relates to HeLa cells. As to the kind of experiment: Apoptosis, cleaved caspase-3 (IF / immunoblot). The assay is classed as cell-based, human. The note with it: 3 μM for 4 or 7 days. How it is done: as §2, §3
Another assay relates to MB004 tumors. How it is done:
Mouse subcutaneous and orthotopic xenograft. Athymic Ncr-nu/nu female mice (6-7 weeks old) were subcutaneously injected with 10,000 MB004 cells. Mice were weighed and distributed in two groups (control and 6-thio-dG). After tumor-establishment (day 23-24 post-implantation) with an average volume of 100-200 mm3, mice were injected intraperitoneally (i.p) every 2 days with 6-thio-dG (2.5 mg/kg) or DMSO-PBS (vehicle) for 3-4 weeks until euthanization. Tumors were measured by slide calipers taking two longest tumor-diameters (length and width) perpendicular to each other and volumes were calculated by using the formula: (π/6)×d3, where d=mean diameter. For orthotopic xenograft, CCHMC-DIPG-1 luciferase-positive cells (10,000) were injected in the brain of NRG (NOD.Cg-Rag1tm1Mom Il2rgtm1Wjl/SzJ) mice. Briefly, mice were injected stereotactically with 2 μl medium containing 10,000 luciferase-positive cells. The coordinates for injection were 0.8-1 mm posterior to lambda suture and 3.5 mm deep, corresponding to the pons location in the brain. Tumors were visualized by luminescence using IVIS Spectrum CT in vivo imaging system (PerkinElmer). All animal procedures were approved by the Institutional Animal Care and Use Committee (IACUC) (protocol #IACUC2015-0066, CCHMC).
Immunohistochemistry. Formalin-fixed paraffin-embedded (FFPE) sections were deparaffinized in xylene followed by rehydration through a graded ethanol concentration series. Heat-induced antigen retrieval was performed by steaming slides for 20 minutes in 10 mM Citrate buffer (pH 6.0). […] Slides were washed with TBST (×3) and were treated with biotinylated anti-rabbit secondary antibody (1:500) and signal-amplified using ABC Kit (Vector Laboratories). Signal was visualized with DAB (Vector Laboratories) and counterstained with Harris Hematoxylin (Sigma). H & E staining was performed using hematoxylin-1 and eosin-Y (Thermo Scientific). Tissues were mounted with Permount (Fisher Scientific) and imaged by Nikon eclipse 80i microscope.
Tissue TIF assay. Tissue samples were pre-fixed with 4% PFA and were cryo-protected in 25% sucrose/PBS solution, then embedded in OCT freezing molds with Neg-50 (VWR) in acetone and dry ice followed by cryo-sectioning. Heat-induced antigen retrieval and Telomere-FISH was performed as described above. The samples were incubated in blocking solution (5% donkey serum, 0.3% Triton X-100 in TBS) for 30 minutes and treated with anti-53BP1 (rabbit 1:500; Novus Biologicals) for 1 hour at room temperature. After washing in TBST (×3), the samples were incubated with secondary antibody Alexa-Fluor 488-conjugated donkey anti-rabbit (1:400; Jackson ImmunoResearch), and washed in TBS (×3). The samples were embedded in mounting media with DAPI (Vector Laboratories H1200). Images were captured with 60× oil objective on Nikon Eclipse Ti confocal microscope.

In assay [3] the test system is telomerase-positive cells including brain tumor cells. As to the kind of experiment: Cell growth assay, panel of telomerase-positive cells. Type of assay: cell-based, human. Here is the method: Cell growth and sphere formation assay. After dissociating primary neurospheres by TrypLE express (Gibco), single cells were seeded in respective growth media in 6-well plates and were incubated for one week at varying concentrations (0.5 to 10 μM) of 6-thio-dG or DMSO. Fresh culture media were added every three days. Viable cell numbers were determined by trypan blue exclusion method. For sphere formation assay, MB004 single cells were seeded in limited dilution (10 cells/well in 96-well plate) and treated with DMSO or 6-thio-dG. Sphere formation was monitored by microscopy.

Where [4] appears, read: 2.5 mg/kg i.p. every 2 days for 3-4 weeks.
[5] abbreviates: 2.5 mg/kg i.p. every 2 days, vs untreated group.

In the case of `Nc1nc2c(ncn2[C@H]2C[C@H](O)[C@@H](CO)O2)c(=S)[nH]1` [6-thio-dG, 6-thio-2′-deoxyguanosine], the cell cycle populations result in the assay with MB004 cells was “increase in sub-G1 and G2/M cell populations”. Besides, the “effect on cell cycle progression after drug removal” value with HeLa cells [1] (3 μM 3 days, then drug removed) is “persisted several days after drug withdrawal”. The cell cycle progression entry with HeLa cells [1] (3 μM, three days) is given as “caused G2/M arrest”. In addition, in the assay on HeLa cells [1] (continuous treatment, 3 μM), the cell cycle populations result is “sharp increase in G2/M, >4n and sub-G1 cell populations”. Further, the “apoptosis (cleaved caspase-3)” value in the assay with HFF cells is reported as “did not show any evidence of apoptosis”. Besides, the “apoptosis (cleaved caspase-3)” value in the assay with HFF+hTERT cells is reported as “did not show any evidence of apoptosis”. For the same compound, in the assay on HeLa cells [2], the “cleaved caspase-3 signal (apoptosis)” value is on record as “increase in cleaved caspase-3 signal”. In the assay on MB004 tumors (2.5 mg/kg i.p. every 2 days), the “in-tumor cells with at least 1-3 TIFs” value was “More than 21%” and the “population of cells with 4-6 TIFs per cell” value is given as “detected only in treated tumors”. Further, in the assay with MB004 tumors (setting [4]), the “treated mice with fast tumor growth” value was “Two out of six” and the “treated mice with reduced or delayed tumor growth” value is given as “Four out of six”. For the same compound, the “in-tumor apoptosis (cleaved caspase-3 IHC)” value in the assay on MB004 tumors (2.5 mg/kg i.p. every 2 days, vs control group) is reported as “significant increase in apoptosis”. In the assay on MB004 tumors (setting [5]), the “apoptotic bodies (H & E)” value was “increase in apoptotic bodies” and the “number of mitotic figures (H & E)” value is given as “significant decrease”. In the assay with MB004 tumors (upon reaching tumor volume of 1500 mm^3, vs vehicle group), the “probability of animal survival” value was “significantly higher”. In addition, in assay [3] (0.5 to 10 μM every three days for one week), the cell growth result is recorded as “inhibited cell growth in a dose-dependent manner”. The compound further yielded an IC50 in assay [3] (Homo sapiens, all telomerase-positive cells including brain tumor cells (Table S2)) of 140 to 1450 nM.

The term IC50 denotes the concentration at which inhibition is half-maximal. A lower IC50 goes with higher potency.
